Reference: ChEMBL document CHEMBL4613277, “Improving the Potency of N-Aryl-2,5-dimethylpyrroles against Multidrug-Resistant and Intracellular Mycobacteria” (ACS Med Chem Lett, 2020)
≈ marks a conversion by molar mass, not a printed value. Calls of active or inactive are those of the source. The rule behind the calls is not given here.

Columns and labels:
[1] = tested on: Mycobacterium tuberculosis; assay: Bactericidal activity against Mycobacterium tuberculosis H37Rv assessed as reduction in bacterial growth at 0.35 ug/ml incubated for 3 to 4 weeks by time kill assay; assay type: functional, organism-based
[2] = tested on: Mycobacterium tuberculosis; assay: Bacteriostatic activity against Mycobacterium tuberculosis H37Rv assessed as reduction in bacterial growth at 0.07 ug/ml incubated for 3 to 4 weeks by time kill assay; assay type: functional, organism-based
[3] = tested on: Mycobacterium tuberculosis; assay: Antimycobacterial activity against Mycobacterium tuberculosis H37Rv infected in mouse J774.1 cells assessed as reduction in bacterial colony at 1 to 10 times MIC incubated for 72 hrs by colony counting method; assay type: functional, organism-based
[4] = tested on: Mycobacterium tuberculosis; assay: Antimycobacterial activity against Mycobacterium tuberculosis H37Rv assessed as reduction in bacterial growth incubated for 7 days by resazurin based assay; assay type: functional; conditions: 168 h
[5] = Cytotoxicity against mouse macrophage cells assessed as growth inhibition incubated for 48 hrs by resazurin based assay; assay type: cell-based
[6] = Selectivity index, ratio of GI50 for mouse Macrophage cells to MIC for Mycobacterium tuberculosis H37Rv; assay type: toxicity
[7] = Acute toxicity in Galleria mellonella wax moth larve assessed as adverse effect at 12 mg/kg observed for 5 days; assay type: organism-based; conditions: in vivo, 120 h
Mycolicibacterium aurum [8] = assay: Antimycobacterial activity against Mycobacterium aurum assessed as reduction in bacterial growth incubated for 48 hrs by HT-SPOTi assay; assay type: functional
[9] = tested on: Mycobacterium tuberculosis; assay: Bacteriostatic activity against Mycobacterium tuberculosis H37Rv assessed as reduction in bacterial growth at 0.32 ug/ml incubated for 3 to 4 weeks by time kill assay; assay type: functional, organism-based
Mycolicibacterium aurum [10] = assay: Antimycobacterial activity against Mycobacterium aurum infected in mouse RAW264.7 cells assessed as reduction in bacterial growth incubated for 48 hrs by HT-SPOTi assay; assay type: functional
[11] = Acute toxicity in Galleria mellonella wax moth larve assessed as mortality by measuring melanization at 12 mg/kg observed for 5 days; assay type: organism-based; conditions: in vivo, 120 h

SMILES: COc1c(N2C[C@@H]3CCCN[C@@H]3C2)c(F)cc2c(=O)c(C(=O)O)cn(C3CC3)c12
- Activity [1]: Active
- Activity [2]: inactive
- inhibition [3]: Active

SMILES: Clc1ccc2nc(CNC3CCCCC3)cn2c1
- MIC [4]: > 25 µg/mL

SMILES: Clc1ccc(-n2cc(CNCc3ccccc3)nn2)cc1
- MIC [4]: > 25 µg/mL

SMILES: Cc1nn(-c2ccc(Cl)cc2)c(C)c1CNC1CCCCC1
- MIC [4]: > 25 µg/mL

SMILES: Cc1cc(CNC2CCCCC2)c(C)n1-c1ccc(C(C)C)cc1
- GI50 at 48 h [5]: 5.8 µg/mL (≈ 17.9 µM)
- selectivity ratio [6]: 23 to 48
- MIC [4]: 0.12 to 0.25 µg/mL (≈ 0.37 to 0.77 µM)

SMILES: Cc1cc(CN[C@H]2C[C@@H]3CC[C@H]2C3)c(C)n1-c1ccc(Cl)cc1
- GI50 at 48 h [5]: 23.4 µg/mL (≈ 71.1 µM)
- selectivity ratio [6]: 47 to 94
- MIC [4]: 0.25 to 0.5 µg/mL (≈ 0.76 to 1.52 µM)

SMILES: Cc1nn(-c2ccccc2)c(C)c1CNC1CCCCC1
- MIC [4]: > 25 µg/mL

SMILES: Clc1ccc2nc(CNCc3ccccc3)cn2c1
- MIC [4]: > 25 µg/mL

SMILES: Clc1ccc(-n2cc(CNC3CCCCC3)nn2)cc1
- MIC [4]: > 25 µg/mL

SMILES: Cc1cc(CNCC2CCCCC2)c(C)n1-c1ccc(Cl)cc1
- Activity [7]: Non-Toxic
- MIC (Mycolicibacterium aurum [8]): 3.9 µg/mL (≈ 11.8 µM)
- GI50 at 48 h [5]: 11.7 µg/mL (≈ 35.4 µM)
- Activity [9]: Active
- selectivity ratio [6]: 39 to 195
- MIC (Mycolicibacterium aurum [10]): 1.95 µg/mL (≈ 5.89 µM)
- MIC [4]: 0.06 to 0.3 µg/mL (≈ 0.181 to 0.907 µM)
- Activity [11]: Non-Toxic
- inhibition [3]: Active

SMILES: Cc1nn(-c2ccc(Cl)cc2)c(C)c1CNCc1ccccc1
- MIC [4]: > 25 µg/mL

SMILES: COc1ccc(-n2c(C)cc(CNC3CCCCC3)c2C)cc1
- GI50 at 48 h [5]: 3.9 µg/mL (≈ 12.5 µM)
- selectivity ratio [6]: 16 to 32
- MIC [4]: 0.12 to 0.25 µg/mL (≈ 0.384 to 0.8 µM)

SMILES: CO[C@H]1/C=C/O[C@@]2(C)Oc3c(C)c(O)c4c(O)c(c(/C=N/N5CCN(C)CC5)c(O)c4c3C2=O)NC(=O)/C(C)=C\C=C\[C@H](C)[C@H](O)[C@@H](C)[C@@H](O)[C@@H](C)[C@H](OC(C)=O)[C@@H]1C [RIFAMPIN]
- MIC [4]: > 0.06 µg/mL

SMILES: NNC(=O)c1ccncc1 [ISONIAZID]
- MIC [4]: 0.24 µg/mL (≈ 1.75 µM)
- inhibition [3]: Active
